# PubChem BioAssay (NCI)
#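 Compound exposure: 48 hours, 5 concentrations, 96-well plates. At the TGI there is no net growth.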
# What was measured:
# Experiment in all cases: NCI-60 cell line screen, 48 h
# TK-10 renal = tested on: TK-10 renal
# HL-60(TB) leukemia = tested on: HL-60(TB) leukemia
# MCF7 breast = tested on: MCF7 breast
# DU-145 prostate = tested on: DU-145 prostate
# CCRF-CEM leukemia = tested on: CCRF-CEM leukemia
# EKVX NSCLC = tested on: EKVX NSCLC
# IGROV1 ovarian = tested on: IGROV1 ovarian
# SW-620 colon = tested on: SW-620 colon
# MOLT-4 leukemia = tested on: MOLT-4 leukemia
# SK-MEL-2 melanoma = tested on: SK-MEL-2 melanoma
# PC-3 prostate = tested on: PC-3 prostate
# SK-MEL-5 melanoma = tested on: SK-MEL-5 melanoma
# SF-539 CNS = tested on: SF-539 CNS
# BT-549 breast = tested on: BT-549 breast
# MALME-3M melanoma = tested on: MALME-3M melanoma
# UACC-257 melanoma = tested on: UACC-257 melanoma
# ACHN renal = tested on: ACHN renal
# COLO 205 colon = tested on: COLO 205 colon
# SF-295 CNS = tested on: SF-295 CNS
# HOP-62 NSCLC = tested on: HOP-62 NSCLC
# NCI-H226 lung = tested on: NCI-H226 lung
# M14 melanoma = tested on: M14 melanoma
# T-47D breast = tested on: T-47D breast
# SF-268 CNS = tested on: SF-268 CNS
# UACC-62 melanoma = tested on: UACC-62 melanoma
# OVCAR-8 ovarian = tested on: OVCAR-8 ovarian
# RPMI-8226 leukemia = tested on: RPMI-8226 leukemia
# NCI-H460 lung = tested on: NCI-H460 lung
# SNB-75 CNS = tested on: SNB-75 CNS
# SNB-19 CNS = tested on: SNB-19 CNS
# OVCAR-3 ovarian = tested on: OVCAR-3 ovarian
# MDA-MB-435 = tested on: MDA-MB-435
# HCT-15 colon = tested on: HCT-15 colon
# MDA-MB-231 breast = tested on: MDA-MB-231 breast
# UO-31 renal = tested on: UO-31 renal
# SK-OV-3 ovarian = tested on: SK-OV-3 ovarian
# OVCAR-5 ovarian = tested on: OVCAR-5 ovarian
# CAKI-1 renal = tested on: CAKI-1 renal
# K-562 leukemia = tested on: K-562 leukemia
# HS 578T breast = tested on: HS 578T breast
# NCI-H23 lung = tested on: NCI-H23 lung
# RXF 393 renal = tested on: RXF 393 renal
# KM12 colon = tested on: KM12 colon
# MDA-N = tested on: MDA-N
# SN12C renal = tested on: SN12C renal
# U251 CNS = tested on: U251 CNS
# SK-MEL-28 melanoma = tested on: SK-MEL-28 melanoma
# OVCAR-4 ovarian = tested on: OVCAR-4 ovarian
# LOX IMVI melanoma = tested on: LOX IMVI melanoma
# HOP-92 NSCLC = tested on: HOP-92 NSCLC
# A549 NSCLC = tested on: A549 NSCLC
# 786-0 renal = tested on: 786-0 renal
# SR leukemia = tested on: SR leukemia
# HCT-116 colon = tested on: HCT-116 colon
# NCI/ADR-RES ovarian = tested on: NCI/ADR-RES ovarian
# HT29 colon = tested on: HT29 colon
# HCC-2998 colon = tested on: HCC-2998 colon
# A498 renal = tested on: A498 renal
# NCI-H522 lung = tested on: NCI-H522 lung
compound,measurement,setting,value
CC1=Nc2c(N)nc(N)nc2N(C)C1,TGI,TK-10 renal,> 100 µM
same,TGI,HL-60(TB) leukemia,> 100 µM
same,TGI,MCF7 breast,> 100 µM
same,TGI,DU-145 prostate,> 100 µM
same,TGI,CCRF-CEM leukemia,> 100 µM
same,TGI,EKVX NSCLC,> 100 µM
same,TGI,IGROV1 ovarian,> 100 µM
same,TGI,SW-620 colon,> 100 µM
same,TGI,MOLT-4 leukemia,> 100 µM
same,TGI,SK-MEL-2 melanoma,> 100 µM
same,TGI,PC-3 prostate,> 100 µM
same,TGI,SK-MEL-5 melanoma,> 100 µM
same,TGI,SF-539 CNS,> 100 µM
same,TGI,BT-549 breast,> 100 µM
same,TGI,MALME-3M melanoma,> 100 µM
same,TGI,UACC-257 melanoma,> 100 µM
same,TGI,ACHN renal,> 100 µM
same,TGI,COLO 205 colon,> 100 µM
same,TGI,SF-295 CNS,> 100 µM
same,TGI,HOP-62 NSCLC,> 100 µM
same,TGI,NCI-H226 lung,> 100 µM
same,TGI,M14 melanoma,> 100 µM
same,TGI,T-47D breast,> 100 µM
same,TGI,SF-268 CNS,> 100 µM
same,TGI,UACC-62 melanoma,> 100 µM
same,TGI,OVCAR-8 ovarian,> 100 µM
same,TGI,RPMI-8226 leukemia,> 100 µM
same,TGI,NCI-H460 lung,> 100 µM
same,TGI,SNB-75 CNS,> 100 µM
same,TGI,SNB-19 CNS,> 100 µM
same,TGI,OVCAR-3 ovarian,> 100 µM
same,TGI,MDA-MB-435,> 100 µM
same,TGI,HCT-15 colon,> 100 µM
same,TGI,MDA-MB-231 breast,> 100 µM
same,TGI,UO-31 renal,> 100 µM
same,TGI,SK-OV-3 ovarian,> 100 µM
same,TGI,OVCAR-5 ovarian,> 100 µM
same,TGI,CAKI-1 renal,> 100 µM
same,TGI,K-562 leukemia,> 100 µM
same,TGI,HS 578T breast,> 100 µM
same,TGI,NCI-H23 lung,> 100 µM
same,TGI,RXF 393 renal,> 100 µM
same,TGI,KM12 colon,> 100 µM
same,TGI,MDA-N,> 100 µM
same,TGI,SN12C renal,> 100 µM
same,TGI,U251 CNS,> 100 µM
same,TGI,SK-MEL-28 melanoma,> 100 µM
NCc1ccc(O)c(O)c1,TGI,OVCAR-4 ovarian,> 100 µM
same,TGI,HL-60(TB) leukemia,41 µM
same,TGI,LOX IMVI melanoma,> 100 µM
same,TGI,MCF7 breast,> 100 µM
same,TGI,DU-145 prostate,> 100 µM
same,TGI,CCRF-CEM leukemia,> 100 µM
same,TGI,EKVX NSCLC,> 100 µM
same,TGI,HOP-92 NSCLC,> 100 µM
same,TGI,IGROV1 ovarian,> 100 µM
same,TGI,A549 NSCLC,> 100 µM
same,TGI,786-0 renal,> 100 µM
same,TGI,SW-620 colon,> 100 µM
same,TGI,MOLT-4 leukemia,> 100 µM
same,TGI,SK-MEL-2 melanoma,> 100 µM
same,TGI,PC-3 prostate,> 100 µM
same,TGI,SK-MEL-5 melanoma,> 100 µM
same,TGI,SR leukemia,> 100 µM
same,TGI,SF-539 CNS,> 100 µM
same,TGI,BT-549 breast,> 100 µM
same,TGI,UACC-257 melanoma,> 100 µM
same,TGI,ACHN renal,> 100 µM
same,TGI,COLO 205 colon,> 100 µM
same,TGI,SF-295 CNS,> 100 µM
same,TGI,HCT-116 colon,> 100 µM
same,TGI,HOP-62 NSCLC,> 100 µM
same,TGI,NCI-H226 lung,> 100 µM
same,TGI,M14 melanoma,> 100 µM
same,TGI,T-47D breast,> 100 µM
same,TGI,NCI/ADR-RES ovarian,> 100 µM
same,TGI,UACC-62 melanoma,> 100 µM
same,TGI,OVCAR-8 ovarian,> 100 µM
same,TGI,HT29 colon,> 100 µM
same,TGI,RPMI-8226 leukemia,> 100 µM
same,TGI,HCC-2998 colon,> 100 µM
same,TGI,NCI-H460 lung,> 100 µM
same,TGI,SNB-75 CNS,> 100 µM
same,TGI,A498 renal,> 100 µM
same,TGI,SNB-19 CNS,> 100 µM
same,TGI,OVCAR-3 ovarian,> 100 µM
same,TGI,MDA-MB-435,> 100 µM
same,TGI,HCT-15 colon,> 100 µM
same,TGI,MDA-MB-231 breast,> 100 µM
same,TGI,UO-31 renal,> 100 µM
same,TGI,SK-OV-3 ovarian,> 100 µM
same,TGI,OVCAR-5 ovarian,> 100 µM
same,TGI,CAKI-1 renal,> 100 µM
same,TGI,K-562 leukemia,> 100 µM
same,TGI,NCI-H23 lung,> 100 µM
same,TGI,RXF 393 renal,> 100 µM
same,TGI,KM12 colon,> 100 µM
same,TGI,MDA-N,> 100 µM
same,TGI,SN12C renal,> 100 µM
same,TGI,U251 CNS,> 100 µM
same,TGI,SK-MEL-28 melanoma,> 100 µM
O=c1[nH]cnc2c1cnn2Cc1cn(COCC(O)CO)nn1 (centres undefined),TGI,OVCAR-4 ovarian,> 100 µM
same,TGI,TK-10 renal,> 100 µM
same,TGI,HL-60(TB) leukemia,> 100 µM
same,TGI,LOX IMVI melanoma,> 100 µM
same,TGI,MCF7 breast,> 100 µM
same,TGI,DU-145 prostate,> 100 µM
same,TGI,CCRF-CEM leukemia,> 100 µM
same,TGI,EKVX NSCLC,> 100 µM
same,TGI,HOP-92 NSCLC,> 100 µM
same,TGI,IGROV1 ovarian,> 100 µM
same,TGI,A549 NSCLC,> 100 µM
same,TGI,786-0 renal,> 100 µM
same,TGI,SW-620 colon,> 100 µM
same,TGI,MOLT-4 leukemia,> 100 µM
same,TGI,SK-MEL-2 melanoma,> 100 µM
same,TGI,PC-3 prostate,> 100 µM
same,TGI,SK-MEL-5 melanoma,> 100 µM
same,TGI,SR leukemia,> 100 µM
same,TGI,SF-539 CNS,> 100 µM
same,TGI,BT-549 breast,> 100 µM
same,TGI,UACC-257 melanoma,> 100 µM
same,TGI,ACHN renal,> 100 µM
same,TGI,COLO 205 colon,> 100 µM
same,TGI,SF-295 CNS,> 100 µM
same,TGI,HCT-116 colon,> 100 µM
same,TGI,HOP-62 NSCLC,> 100 µM
same,TGI,NCI-H226 lung,> 100 µM
same,TGI,M14 melanoma,> 100 µM
same,TGI,T-47D breast,> 100 µM
same,TGI,NCI/ADR-RES ovarian,> 100 µM
same,TGI,UACC-62 melanoma,> 100 µM
same,TGI,OVCAR-8 ovarian,> 100 µM
same,TGI,HT29 colon,> 100 µM
same,TGI,RPMI-8226 leukemia,> 100 µM
same,TGI,HCC-2998 colon,> 100 µM
same,TGI,A498 renal,> 100 µM
same,TGI,SNB-19 CNS,> 100 µM
same,TGI,OVCAR-3 ovarian,> 100 µM
same,TGI,MDA-MB-435,> 100 µM
same,TGI,HCT-15 colon,> 100 µM
same,TGI,MDA-MB-231 breast,> 100 µM
same,TGI,UO-31 renal,> 100 µM
same,TGI,SK-OV-3 ovarian,> 100 µM
same,TGI,OVCAR-5 ovarian,> 100 µM
same,TGI,CAKI-1 renal,> 100 µM
same,TGI,NCI-H522 lung,62.7 µM
same,TGI,K-562 leukemia,> 100 µM
same,TGI,NCI-H23 lung,> 100 µM
same,TGI,KM12 colon,> 100 µM
same,TGI,MDA-N,> 100 µM
same,TGI,SN12C renal,> 100 µM
same,TGI,U251 CNS,> 100 µM
same,TGI,SK-MEL-28 melanoma,> 100 µM
